pEC50: −log10 of the molar value. Where two headings read alike, the source gives them in different places.
Key:
WEE1 = target: T1, WEE1 (Homo sapiens, UniProt P30291+Q96SW2); assay: WEE1-ePL degradation assay (LentiX-WEE1-ePL-GSPT1-ND cells, InCELL Hunter luminescence, 4 h); type: cell-based; settings: 293T-LentiX WEE1-ePL cells; for DC50: read-out: 293T-LentiX WEE1-ePL Degradation 4 hr (EC50)
T1 construct: C-terminal ePL-tagged (DiscoverX, Fremont, CA) full-length WEE1 expression construct; expressed in transfected cells; host or cells: LentiX-HEK293T (Invitrogen), lentiviral transduction; co-expressing GSPT1-GN (G576N, lacking the first 158 amino acids)
Outline: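 Degradation EC50 was fitted by a four-parameter logistic model, with the upper limit taken from DMSO wells. Luminescence was read with InCELL Hunter reagent after 30 min at room temperature, following a 4 h, 37° C exposure of 2500 cells/well. Cells were LentiX-HEK293T carrying ePL-tagged full-length WEE1, dosed in 10 points (3-fold) from 1 or 10 uM.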

MKN45 cells = assay: MKN45 cell proliferation assay (Cell-Titer-Glo, 120 h); type: cell-based; settings: for pEC50: Homo sapiens, MKN-45, 120 h, Cell-Titer-Glo, read-out: MKN45 Cell Prolif. 120 hr (EC50); for MKN45 Cell Prolif. 120 hr (Ymin-Obs): minimal percent of DMSO control observed in the concentrations tested
Outline: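 Cells seeded at 400/well onto pre-printed 10-point half-log dilutions (top 1 or 10 uM, 0.1% DMSO final), in triplicate, and grown 120 h at 37 C. Viability by Cell-Titer-Glo luminescence, blank-subtracted and normalised to DMSO; EC50 from four-parameter logistic fit, with observed minimal % of control recorded as Ymin-obs.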

[1] = lower limit of the fit (0 = luciferase inhibitor, Ymax = DMSO control)
[2] = lower limit of the fit (Ymin=0 luciferase inhibitor, Ymax DMSO control)

| Compound | 293T-LentiX WEE1-ePL Degradation 4 hr (Ymin) (WEE1; [1]) | DC50 (WEE1) [nM] | pEC50 (MKN45 cells; growth inhibition) | MKN45 Cell Prolif. 120 hr (Ymin-Obs) (MKN45 cells) | 293T-LentiX WEE1-ePL Degradation 4 hr (Ymin) (WEE1; [2]) | pEC50 (MKN45 cells) |
| --- | --- | --- | --- | --- | --- | --- |
| O=C1CC[C@H](N2Cc3cc(O[C@H]4CCN(Cc5ccc6nc(N7CCOCC7)ccc6c5)C4)ccc3C2=O)C(=O)N1 [(3S)-3-(5-{[(3S)-1-{[2-(morpholin-4-yl)quinolin-6-yl]methyl}pyrrolidin-3-yl]oxy}-1-oxo-2,3-dihydro-1H-isoindol-2-yl)piperidine-2,6-dione] | 34.59 | 1.83 | 8.01 | 14.56 | – | – |
| O=C1CC[C@H](N2Cc3cc(O[C@H]4CCN(Cc5cc(C6COC6)c6nc(C7CCOCC7)ccc6c5)C4)ccc3C2=O)C(=O)N1 [(3S)-3-(5-{[(3S)-1-{[2-(oxan-4-yl)-8-(oxetan-3-yl)quinolin-6-yl]methyl}pyrrolidin-3-yl]oxy}-1-oxo-2,3-dihydro-1H-isoindol-2-yl)piperidine-2,6-dione] | – | – | – | 96.91 | 88.43 | 8.53 |
| O=C1CC[C@H](N2Cc3cc(O[C@H]4CCN(Cc5cc(C(F)(F)F)c6nc(C7CCOCC7)ccc6c5)C4)ccc3C2=O)C(=O)N1 [(3S)-3-(5-{[(3S)-1-{[2-(oxan-4-yl)-8-(trifluoromethyl)quinolin-6-yl]methyl}pyrrolidin-3-yl]oxy}-1-oxo-2,3-dihydro-1H-isoindol-2-yl)piperidine-2,6-dione] | – | 2.48 | – | 2.25 | 42.83 | 8.52 |
| O=C1CC[C@H](N2Cc3cc(O[C@H]4CCN(Cc5ccc6nc(C7CCOCC7)ncc6c5)C4)ccc3C2=O)C(=O)N1 [(3S)-3-(5-{[(3S)-1-{[2-(oxan-4-yl)quinazolin-6-yl]methyl}pyrrolidin-3-yl]oxy}-1-oxo-2,3-dihydro-1H-isoindol-2-yl)piperidine-2,6-dione] | 32.12 | 75 | 7.53 | 9.327 | – | – |
| O=C1CC[C@H](N2Cc3cc(O[C@H]4CCN(Cc5ccc6nc(C7CCOCC7)ccc6c5)C4)ccc3C2=O)C(=O)N1 [(3S)-3-(5-{[(3S)-1-{[2-(oxan-4-yl)quinolin-6-yl]methyl}pyrrolidin-3-yl]oxy}-1-oxo-2,3-dihydro-1H-isoindol-2-yl)piperidine-2,6-dione] | 31.9 | 1.62 | 8.51 | 10.43 | – | – |
| O=C1CC[C@H](N2Cc3cc(O[C@H]4CCN(Cc5ccc6nc(N7CCOCC7)ncc6c5Cl)C4)ccc3C2=O)C(=O)N1 [(3S)-3-(5-{[(3S)-1-{[5-chloro-2-(morpholin-4-yl)quinazolin-6-yl]methyl}pyrrolidin-3-yl]oxy}-1-oxo-2,3-dihydro-1H-isoindol-2-yl)piperidine-2,6-dione] | – | 3.58 | – | 17.49 | 28.46 | 7.74 |
| O=C1CC[C@H](N2Cc3cc(O[C@H]4CCN(Cc5ccc6nc(C7CCOCC7)ccc6c5F)C4)ccc3C2=O)C(=O)N1 [(3S)-3-(5-{[(3S)-1-{[5-fluoro-2-(oxan-4-yl)quinolin-6-yl]methyl}pyrrolidin-3-yl]oxy}-1-oxo-2,3-dihydro-1H-isoindol-2-yl)piperidine-2,6-dione] | 34.42 | 0.306 | 8.68 | 12.14 | – | – |
| O=C1CC[C@H](N2Cc3cc(O[C@H]4CCN(Cc5cc6ccc(C7CCOCC7)cc6cn5)C4)ccc3C2=O)C(=O)N1 [(3S)-3-(5-{[(3S)-1-{[7-(oxan-4-yl)isoquinolin-3-yl]methyl}pyrrolidin-3-yl]oxy}-1-oxo-2,3-dihydro-1H-isoindol-2-yl)piperidine-2,6-dione] | 33.42 | 0.844 | 8.74 | 8.913 | – | – |
| O=C1CC[C@H](N2Cc3cc(O[C@H]4CCN(Cc5cc6cnc(N7CCOCC7)nc6cc5F)C4)ccc3C2=O)C(=O)N1 [(3S)-3-(5-{[(3S)-1-{[7-fluoro-2-(morpholin-4-yl)quinazolin-6-yl]methyl}pyrrolidin-3-yl]oxy}-1-oxo-2,3-dihydro-1H-isoindol-2-yl)piperidine-2,6-dione] | – | 14.7 | – | 10.84 | 36.02 | 7.82 |
| CC(C)(O)c1cc(CN2CC[C@H](Oc3ccc4c(c3)CN([C@H]3CCC(=O)NC3=O)C4=O)C2)cc2ccc(C3CCOCC3)nc12 [(3S)-3-(5-{[(3S)-1-{[8-(2-hydroxypropan-2-yl)-2-(oxan-4-yl)quinolin-6-yl]methyl}pyrrolidin-3-yl]oxy}-1-oxo-2,3-dihydro-1H-isoindol-2-yl)piperidine-2,6-dione] | – | 6.72 | – | 75.97 | 53.75 | 6.78 |
| O=C1CC[C@H](N2Cc3cc(O[C@H]4CCN(Cc5cc(N6CCC6)c6nc(C7CCOCC7)ccc6c5)C4)ccc3C2=O)C(=O)N1 [(3S)-3-(5-{[(3S)-1-{[8-(azetidin-1-yl)-2-(oxan-4-yl)quinolin-6-yl]methyl}pyrrolidin-3-yl]oxy}-1-oxo-2,3-dihydro-1H-isoindol-2-yl)piperidine-2,6-dione] | – | 26 | – | 3.155 | 33.36 | 7.97 |
| O=C1CC[C@H](N2Cc3cc(O[C@H]4CCN(Cc5cc(Cl)c6nc(N7CCOCC7)ncc6c5)C4)ccc3C2=O)C(=O)N1 [(3S)-3-(5-{[(3S)-1-{[8-chloro-2-(morpholin-4-yl)quinazolin-6-yl]methyl}pyrrolidin-3-yl]oxy}-1-oxo-2,3-dihydro-1H-isoindol-2-yl)piperidine-2,6-dione] | – | 2.88 | – | 12.54 | 38.34 | 7.96 |
| O=C1CC[C@H](N2Cc3cc(O[C@H]4CCN(Cc5cc(Cl)c6nc(C7CCOCC7)ccc6c5)C4)ccc3C2=O)C(=O)N1 [(3S)-3-(5-{[(3S)-1-{[8-chloro-2-(oxan-4-yl)quinolin-6-yl]methyl}pyrrolidin-3-yl]oxy}-1-oxo-2,3-dihydro-1H-isoindol-2-yl)piperidine-2,6-dione] | – | 1.1 | – | 10.22 | 29.99 | 8.35 |
| O=C1CC[C@H](N2Cc3cc(O[C@H]4CCN(Cc5cc(C6CC6)c6nc(N7CCOCC7)ncc6c5)C4)ccc3C2=O)C(=O)N1 [(3S)-3-(5-{[(3S)-1-{[8-cyclopropyl-2-(morpholin-4-yl)quinazolin-6-yl]methyl}pyrrolidin-3-yl]oxy}-1-oxo-2,3-dihydro-1H-isoindol-2-yl)piperidine-2,6-dione] | – | 2.5 | – | 2.136 | 42.1 | 8.64 |
| O=C1CC[C@H](N2Cc3cc(O[C@H]4CCN(Cc5cc(C6CC6)c6nc(C7CCOCC7)ccc6c5)C4)ccc3C2=O)C(=O)N1 [(3S)-3-(5-{[(3S)-1-{[8-cyclopropyl-2-(oxan-4-yl)quinolin-6-yl]methyl}pyrrolidin-3-yl]oxy}-1-oxo-2,3-dihydro-1H-isoindol-2-yl)piperidine-2,6-dione] | – | 2.58 | – | 3.047 | 54.54 | 9.80 |
| O=C1CC[C@H](N2Cc3cc(O[C@H]4CCN(Cc5cc(F)c6nc(N7CCOCC7)ncc6c5)C4)ccc3C2=O)C(=O)N1 [(3S)-3-(5-{[(3S)-1-{[8-fluoro-2-(morpholin-4-yl)quinazolin-6-yl]methyl}pyrrolidin-3-yl]oxy}-1-oxo-2,3-dihydro-1H-isoindol-2-yl)piperidine-2,6-dione] | – | 3.13 | – | 10.25 | 32.63 | 8.12 |
| O=C1CC[C@H](N2Cc3cc(O[C@H]4CCN(Cc5cc(F)c6nc(C7CCOCC7)ncc6c5)C4)ccc3C2=O)C(=O)N1 [(3S)-3-(5-{[(3S)-1-{[8-fluoro-2-(oxan-4-yl)quinazolin-6-yl]methyl}pyrrolidin-3-yl]oxy}-1-oxo-2,3-dihydro-1H-isoindol-2-yl)piperidine-2,6-dione] | – | 27.6 | – | 9.241 | 33.6 | 7.87 |
| O=C1CC[C@H](N2Cc3cc(O[C@H]4CCN(Cc5cc(F)c6nc(C7CCOCC7)ccc6c5)C4)ccc3C2=O)C(=O)N1 [(3S)-3-(5-{[(3S)-1-{[8-fluoro-2-(oxan-4-yl)quinolin-6-yl]methyl}pyrrolidin-3-yl]oxy}-1-oxo-2,3-dihydro-1H-isoindol-2-yl)piperidine-2,6-dione] | 29.02 | 1.45 | 8.64 | 8.43 | – | – |
| C[C@@H]1CN(Cc2ccc3nc([C@@H]4CCOC(C)(C)C4)ccc3c2)C[C@H]1Oc1ccc2c(c1)CN([C@H]1CCC(=O)NC1=O)C2=O [(3S)-3-(5-{[(3S,4R)-1-({2-[(4R)-2,2-dimethyloxan-4-yl]quinolin-6-yl}methyl)-4-methylpyrrolidin-3-yl]oxy}-1-oxo-2,3-dihydro-1H-isoindol-2-yl)piperidine-2,6-dione] | – | 1.15 | – | 8.113 | 24.64 | 9.37 |
